From patent US12428394B2, “2,4-disubstituted pyrimidine derivative, preparation method therefor and use thereof” (CHENGDU ZENITAR BIOMEDICAL TECHNOLOGY CO., LTD., priority 2019, dated 2025)

How the values were obtained:
JAK2 = biological target: T1, JAK2 (Homo sapiens, UniProt O60674); assay: In vitro kinase activity experiment, JAK2; type: biochemical; settings: for Kinase activity @ 500 nM (%) JAK2: inhibition rate of enzyme at 500 nM, measured by Eurofins
T1 construct: purchased Eurofins
Outline: (§1)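 Reactions began on MgATP addition after the kinase, substrate, γ33P-ATP, 10 mM magnesium acetate and compound series were mixed in MOPS buffer pH 7.0 with EDTA and MnCl2. After 40 min at room temperature, phosphate quench, filter-mat capture and washing, incorporated 33P was measured by scintillation counting.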

[1] = test system: MV4-11 cells (FLT3-ITD+/+); assay: Inhibition of cell proliferation by MTT experiment, MV4-11; type: cell-based, human; settings: Homo sapiens, MV4-11; MTT, 72 h; read-out: IC50 value on cell proliferation inhibition, MV4-11 FLT3-ITD+/+
Outline: (§2)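 MTT assay in MV4-11, MOLM-13 (FLT3-ITD) and SET-2 (JAK2 V617F) cells at 10,000–15,000 cells/well in IMDM with 10% FBS. Cells are exposed to compound for 72 h at 37 °C, then to MTT for 1–3 h. IC50 is fitted from inhibition rates across concentrations.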

FLT3 = biological target: T2, FLT3 (Homo sapiens, UniProt P36888); assay: In vitro kinase activity experiment, FLT3; type: biochemical; settings: for inhibition at 0.5 µM: 40 min, inhibition rate of enzyme at 500 nM, measured by Eurofins, read-out: Kinase activity @ 500 nM (%) FLT3
T2 construct: purchased Eurofins
T2 sequence (P36888 27-993): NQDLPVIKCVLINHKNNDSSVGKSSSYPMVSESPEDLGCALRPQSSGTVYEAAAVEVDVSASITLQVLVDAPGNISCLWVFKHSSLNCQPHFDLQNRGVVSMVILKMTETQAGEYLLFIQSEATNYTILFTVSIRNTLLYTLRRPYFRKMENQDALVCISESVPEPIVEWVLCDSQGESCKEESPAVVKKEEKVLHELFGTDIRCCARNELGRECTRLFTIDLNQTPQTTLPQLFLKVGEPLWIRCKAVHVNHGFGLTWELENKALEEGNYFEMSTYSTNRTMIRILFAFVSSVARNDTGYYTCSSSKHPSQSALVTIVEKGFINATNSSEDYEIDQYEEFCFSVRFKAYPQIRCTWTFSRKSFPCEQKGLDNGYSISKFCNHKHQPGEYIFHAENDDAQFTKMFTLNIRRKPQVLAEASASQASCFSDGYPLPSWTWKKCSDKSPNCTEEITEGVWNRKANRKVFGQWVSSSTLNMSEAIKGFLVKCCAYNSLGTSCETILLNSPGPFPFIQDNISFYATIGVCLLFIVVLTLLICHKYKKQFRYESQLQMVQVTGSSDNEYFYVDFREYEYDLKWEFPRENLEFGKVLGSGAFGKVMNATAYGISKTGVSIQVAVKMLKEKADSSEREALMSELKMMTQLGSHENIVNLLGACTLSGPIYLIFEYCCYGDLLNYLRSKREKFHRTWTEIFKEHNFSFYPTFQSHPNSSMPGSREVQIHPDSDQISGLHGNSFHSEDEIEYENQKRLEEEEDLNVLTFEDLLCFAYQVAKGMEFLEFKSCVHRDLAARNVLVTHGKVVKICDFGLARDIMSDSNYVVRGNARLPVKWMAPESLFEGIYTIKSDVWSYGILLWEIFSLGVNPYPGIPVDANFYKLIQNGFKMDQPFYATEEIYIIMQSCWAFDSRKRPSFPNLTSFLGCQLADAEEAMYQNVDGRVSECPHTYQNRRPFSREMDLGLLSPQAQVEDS
Outline: as §1

[2] = test system: MOLM-13 cells (FLT3-ITD-/+); assay: Inhibition of cell proliferation by MTT experiment, MOLM-13; type: cell-based, human; settings: Homo sapiens, MOLM-13; MTT, 72 h; read-out: IC50 value on cell proliferation inhibition, MOLM-13 FLT3-ITD-/+
Outline: as §2

JAK1 = biological target: T3, JAK1 (Homo sapiens, UniProt P23458); assay: In vitro kinase activity experiment, JAK1; type: biochemical
T3 construct: purchased Eurofins
T3 sequence (P23458 whole entry): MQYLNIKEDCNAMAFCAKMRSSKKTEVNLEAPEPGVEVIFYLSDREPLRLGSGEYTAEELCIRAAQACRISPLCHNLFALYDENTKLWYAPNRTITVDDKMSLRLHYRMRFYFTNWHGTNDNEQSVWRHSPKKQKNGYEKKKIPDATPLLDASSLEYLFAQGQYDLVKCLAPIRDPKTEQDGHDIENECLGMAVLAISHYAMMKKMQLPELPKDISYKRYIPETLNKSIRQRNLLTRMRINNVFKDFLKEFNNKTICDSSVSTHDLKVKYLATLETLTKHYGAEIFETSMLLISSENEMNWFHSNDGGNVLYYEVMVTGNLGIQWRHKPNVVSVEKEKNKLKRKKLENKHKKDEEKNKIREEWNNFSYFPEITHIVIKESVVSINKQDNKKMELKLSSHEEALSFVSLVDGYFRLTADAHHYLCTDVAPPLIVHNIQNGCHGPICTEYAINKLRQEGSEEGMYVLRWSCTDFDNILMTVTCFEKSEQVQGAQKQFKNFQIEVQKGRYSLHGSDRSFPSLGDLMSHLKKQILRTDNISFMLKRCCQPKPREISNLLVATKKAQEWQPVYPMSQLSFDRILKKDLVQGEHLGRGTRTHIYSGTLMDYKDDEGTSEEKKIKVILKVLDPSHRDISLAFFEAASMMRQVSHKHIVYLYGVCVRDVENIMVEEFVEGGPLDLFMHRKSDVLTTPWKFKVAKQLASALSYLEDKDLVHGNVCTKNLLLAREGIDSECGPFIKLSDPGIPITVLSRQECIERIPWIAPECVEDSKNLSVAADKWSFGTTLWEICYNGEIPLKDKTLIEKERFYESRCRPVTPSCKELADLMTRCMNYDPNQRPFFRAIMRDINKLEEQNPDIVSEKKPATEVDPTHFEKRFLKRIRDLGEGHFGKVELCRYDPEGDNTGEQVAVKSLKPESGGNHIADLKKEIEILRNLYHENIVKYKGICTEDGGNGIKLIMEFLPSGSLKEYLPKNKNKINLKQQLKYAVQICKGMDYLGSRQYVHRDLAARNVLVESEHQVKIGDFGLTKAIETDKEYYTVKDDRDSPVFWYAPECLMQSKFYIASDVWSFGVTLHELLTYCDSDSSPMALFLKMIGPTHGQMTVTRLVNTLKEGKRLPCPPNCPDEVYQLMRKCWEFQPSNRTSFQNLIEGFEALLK
Method: (§3) Buffer solution ([…], pH 7.0, 0.2 mm EDTA, 10 mM mncl2), kinase to be tested, substrate of kinase to be tested, 10 mM magnesium acetate and γ33P-ATP solution, and compounds with different concentrations were added to a reaction tube in turn, then MgATP was added to initiate the enzyme reaction process, and incubated at room temperature for 40 min. Then, the reaction was terminated with 5 μl of […], and 10 μl of the reaction solution was titrated onto the Filtermat A membrane, washed with 75 mM phosphate solution for three times, each time for 5 min., and then washed with methanol once. Finally, the Filtermat A membrane was dried and the scintillation count was carried out.

SET-2 cells (JAK2 V617F) = assay: Inhibition of cell proliferation by MTT experiment, SET-2; type: cell-based; settings: Homo sapiens, SET-2; MTT, 72 h; read-out: IC50 value on cell proliferation inhibition, SET-2 (V617F)
Outline: as §2

JAK3 = biological target: T4, JAK3 (Homo sapiens, UniProt P52333); assay: In vitro kinase activity experiment, JAK3; type: biochemical
T4 construct: purchased Eurofins
T4 sequence (P52333 1-1124): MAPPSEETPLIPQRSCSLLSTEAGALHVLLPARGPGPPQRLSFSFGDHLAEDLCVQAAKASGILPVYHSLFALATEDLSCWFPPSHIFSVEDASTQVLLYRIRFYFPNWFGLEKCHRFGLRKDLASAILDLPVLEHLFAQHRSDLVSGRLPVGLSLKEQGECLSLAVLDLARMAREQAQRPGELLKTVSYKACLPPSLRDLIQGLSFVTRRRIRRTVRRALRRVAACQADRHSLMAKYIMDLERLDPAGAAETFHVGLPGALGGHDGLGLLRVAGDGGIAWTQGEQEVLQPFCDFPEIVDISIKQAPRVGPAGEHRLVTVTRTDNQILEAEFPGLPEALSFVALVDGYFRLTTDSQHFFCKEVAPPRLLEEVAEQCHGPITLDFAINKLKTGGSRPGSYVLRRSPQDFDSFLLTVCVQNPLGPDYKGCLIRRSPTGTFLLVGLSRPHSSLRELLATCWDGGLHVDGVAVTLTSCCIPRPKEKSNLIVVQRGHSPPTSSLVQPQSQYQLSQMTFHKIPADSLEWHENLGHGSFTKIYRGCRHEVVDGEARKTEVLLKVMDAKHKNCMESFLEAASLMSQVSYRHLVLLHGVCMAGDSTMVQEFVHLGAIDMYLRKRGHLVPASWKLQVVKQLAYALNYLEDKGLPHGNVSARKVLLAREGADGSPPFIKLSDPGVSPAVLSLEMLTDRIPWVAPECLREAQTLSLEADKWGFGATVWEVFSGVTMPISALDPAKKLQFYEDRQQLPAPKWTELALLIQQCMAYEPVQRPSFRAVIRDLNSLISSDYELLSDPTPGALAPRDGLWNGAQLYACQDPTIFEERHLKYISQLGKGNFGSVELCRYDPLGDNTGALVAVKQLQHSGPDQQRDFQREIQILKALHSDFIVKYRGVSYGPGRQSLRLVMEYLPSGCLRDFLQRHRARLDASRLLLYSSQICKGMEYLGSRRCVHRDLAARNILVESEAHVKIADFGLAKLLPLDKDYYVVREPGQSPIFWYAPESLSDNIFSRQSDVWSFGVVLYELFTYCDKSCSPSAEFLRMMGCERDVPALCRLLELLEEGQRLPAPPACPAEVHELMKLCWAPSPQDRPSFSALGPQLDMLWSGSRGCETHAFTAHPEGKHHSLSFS
Method: as §3

JAK2V617F = assay: JAK2V617F-induced myelofibrosis mouse model; type: in vivo, BALB/c mice; settings: 30 mg/Kg, oral twice a day, after 8 weeks of treatment
From the text: JAK2 mutant JAK2V617F gene vector MSCV-JAK2V617F-GFP (Chengdu Wandao Biotechnology Development Co., Ltd.) and BALB/c mice (Jiangsu Jicui Yaokang Biotechnology Co., Ltd.) were provided as donors. The mouse bone marrow cells were sampled and infected with JAK2V617F virus, and the infected cells were reinfused into BALB/c recipient mice irradiated by X-rays through tail vein. Then, the JAK2V617F-positive myelofibrosis mouse model was induced. […] The administration route was oral administration twice a day, and the mice in the blank control group and the model group took the same volume of normal saline orally. […] Therefore, modifications or improvements made without departing from the spirit of the present invention are within the scope of protection of the present invention.

[3] = test system: Ba/F3-EpoR-JAK2V617F cells; assay: Ba/F3-EpoR-JAK2V617F-driven malignant tumor mouse model; type: in vivo, Babl/c-nude mice; settings: 30 mg/Kg, oral twice a day
Method: Babl/c-nude mice (Beijing Huafukang Biotechnology Co., Ltd.) were received and acclimated to the environment until these mice were normalized in diet and activity, and the modeling began. Ba/F3-EpoR-JAK2V617F cells (State Key Laboratory of Biotherapy, Sichuan University) were routinely incubated and grew to 80% fusion degree. Then the cells were centrifuged at 1000 rpm for 3 min., collected, resuspended by PBS and counted by a cell counter; while the survival rate of the cells was calculated. Only when the proportion of living cells exceeds 90%, can the cells be used in the experiment, with the cell concentration adjusted to 1×10^7 cells/mL. After the cells were collected, the cell suspension was pre-cooled on ice. Each mouse was inoculated as per 1.0×10^6, and batch induction modeling was carried out.

T1 sequence (O60674 whole entry): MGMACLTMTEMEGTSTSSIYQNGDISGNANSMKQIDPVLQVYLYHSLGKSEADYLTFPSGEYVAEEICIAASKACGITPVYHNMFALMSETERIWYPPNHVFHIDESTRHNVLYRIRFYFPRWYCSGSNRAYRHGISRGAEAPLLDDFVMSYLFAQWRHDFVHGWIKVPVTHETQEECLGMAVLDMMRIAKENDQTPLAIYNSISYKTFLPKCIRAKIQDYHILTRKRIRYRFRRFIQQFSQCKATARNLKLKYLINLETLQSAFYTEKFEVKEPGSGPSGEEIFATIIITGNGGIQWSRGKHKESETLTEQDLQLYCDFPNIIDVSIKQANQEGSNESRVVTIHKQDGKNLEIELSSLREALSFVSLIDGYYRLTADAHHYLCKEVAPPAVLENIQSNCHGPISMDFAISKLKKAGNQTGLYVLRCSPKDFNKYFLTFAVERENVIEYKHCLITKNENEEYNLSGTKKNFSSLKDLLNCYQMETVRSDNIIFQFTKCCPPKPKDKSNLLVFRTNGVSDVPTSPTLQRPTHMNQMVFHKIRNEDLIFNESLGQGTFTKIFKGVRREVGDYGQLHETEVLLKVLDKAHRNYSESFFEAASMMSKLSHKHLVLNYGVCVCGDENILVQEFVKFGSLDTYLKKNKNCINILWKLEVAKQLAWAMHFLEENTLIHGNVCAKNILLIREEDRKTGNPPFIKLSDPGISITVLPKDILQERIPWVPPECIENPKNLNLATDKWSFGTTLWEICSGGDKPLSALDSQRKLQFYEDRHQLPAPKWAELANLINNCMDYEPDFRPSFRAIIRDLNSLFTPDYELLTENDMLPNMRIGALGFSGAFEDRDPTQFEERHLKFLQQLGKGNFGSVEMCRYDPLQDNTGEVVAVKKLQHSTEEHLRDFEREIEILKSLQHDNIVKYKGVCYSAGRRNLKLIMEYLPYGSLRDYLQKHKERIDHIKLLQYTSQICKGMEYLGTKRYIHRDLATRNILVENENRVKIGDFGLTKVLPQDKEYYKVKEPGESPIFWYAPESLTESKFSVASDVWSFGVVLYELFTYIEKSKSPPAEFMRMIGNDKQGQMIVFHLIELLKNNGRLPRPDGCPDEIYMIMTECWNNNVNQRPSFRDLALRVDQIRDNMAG

| IC50 (JAK2) | Kinase activity @ 500 nM (%) JAK2 (JAK2) | IC50 [1] | IC50 (FLT3) | inhibition at 0.5 µM (FLT3) | IC50 [2] | IC50 (JAK1) | IC50 (JAK3) | SMILES | IC50 (SET-2 cells (JAK2 V617F)) | inhibition of growth rate of spleen (JAK2V617F) | inhibition of spleen growth [3] |
| --- | --- | --- | --- | --- | --- | --- | --- | --- | --- | --- | --- |
| 2 nM | 93% | 10 to 100 nM | 9 nM | 72% | 100 to 1000 nM | 58 nM | – | Cc1cnc(Nc2ccc(N3CCC(N(C)C)CC3)c(F)c2)nc1-c1cnn(C(C)C)c1 [CLJ-38, 5-methyl-N-(3-fluoro-4-(4-dimethylaminopiperidine-1-yl)phenyl)-4-(1-isopropyl-1H-pyrazole-4-yl) pyrimidine-2-amine] | 100 to 1000 nM | – | – |
| 1 nM | 106% | 1 to 10 nM | 9 nM | 102% | 10 to 100 nM | 47 nM | 23 nM | Cc1cnc(Nc2ccc(N3CCC(N(C)CC4CC4)CC3)c(F)c2)nc1-c1cnn(C(C)C)c1 [CLJ-52, 5-methyl-N-(3-fluoro-4-(4-N-cyclopropanemethyl-4-N-methylaminopiperidine-1-yl)phenyl)-4-(1-isopropyl-1H-pyrazole-4-yl) pyrimidine-2-amine] | 100 to 1000 nM | – | – |
| 3 nM | 100% | 10 to 100 nM | 11 nM | 97% | 10 to 100 nM | 121 nM | 103 nM | Cc1cnc(Nc2ccc(N3CCC(N(C)CCO)CC3)c(F)c2)nc1-c1cn(C(C)C)nc1S(C)(=O)=O [CLJ-91, 5-methyl-N-(3-fluoro-4-(4-N-hydroxyethyl-4-N-methylaminopiperidine-1-yl)phenyl)-4-(1-isopropyl-3-methylsulfonyl-1H-pyrazole-4-yl) pyrimidine-2-amine] | 100 to 1000 nM | – | – |
| 2 nM | 99% | 10 to 100 nM | 15 nM | 94% | 10 to 100 nM | 76 nM | 39 nM | Cc1cnc(Nc2ccc(NS(=O)(=O)c3ccc(C(F)(F)F)cc3)c(F)c2)nc1-c1cnn(C(C)C)c1 [CLJ-94, N-(2-fluoro-4-((4-(1-isopropyl-1H-pyrazole-4-yl)-5-methylpyrimidine-2-yl)amino)phenyl)-4-(trifluoromethyl) benzenesulfonamide] | 100 to 1000 nM | – | – |
| – | – | – | – | – | – | – | – | Cc1cnc(Nc2ccc(OCCN3CCCC3)cc2)nc1Nc1cccc(S(=O)(=O)NC(C)(C)C)c1 [Fedratinib, reference compound] | – | 29.46% | 40.23% |
